This passage reports EC50 results from patent US9062028B2, “Bicyclic nitrogen containing heteroaryl TGR5 receptor modulators” (Bristol-Myers Squibb Company, priority 2011, dated 2015).

What is called EC50 is the concentration that produces a half-maximal response.

Structures are written as SMILES. Counter-ions that a name gives are not always drawn.

This assay deals with T1, recombinant human TGR5 (Homo sapiens, UniProt Q8TDU6).
T1 construct: expressed in transfected cells
T1 sequence (Q8TDU6 1-330): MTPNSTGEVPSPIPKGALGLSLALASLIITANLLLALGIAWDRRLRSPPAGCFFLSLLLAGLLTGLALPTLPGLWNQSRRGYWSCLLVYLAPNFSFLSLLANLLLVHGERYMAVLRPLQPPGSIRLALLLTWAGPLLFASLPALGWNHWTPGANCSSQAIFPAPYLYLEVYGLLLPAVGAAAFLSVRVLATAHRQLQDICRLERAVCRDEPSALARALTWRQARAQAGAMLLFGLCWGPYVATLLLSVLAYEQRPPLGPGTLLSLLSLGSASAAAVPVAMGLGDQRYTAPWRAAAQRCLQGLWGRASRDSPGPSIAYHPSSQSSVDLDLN
Nature of the assay: cAMP assay (cAMP accumulation, HTRF) in CHOK1 cells stably expressing TGR5. The format is cell-based. Conditions: CHOK1 cells stably expressing human TGR5, 30 minutes at RT, 1% DMSO. An outline of the steps:
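Agonist-induced cAMP accumulation: stable TGR5-CHOK1 cells treated 30 min at RT with compound (1% DMSO) plus 0.1 mM IBMX. HTRF ratio converted to nM cAMP via standard curve; EC50 from four-parameter logistic fit, midpoint between baseline and maximum.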
(Cyclic AMP is a second messenger, typically raised through Gs and lowered through Gi signalling.)
For `Cc1c(Cl)cccc1OCCOC(=O)N1C[C@@H]2C[C@@H]2c2c(-c3cnn(Cc4cc(C(=O)NC(CNS(C)(=O)=O)C(=O)O)ccc4Cl)c3)cccc21` (stereo partly drawn) [Example 685, 2-(4-Chloro-3-((4-((1aR,7bS)-3-((2-(3-chloro-2-methylphenoxy)ethoxy)carbonyl)-1a,2,3,7b-tetrahydro-1H-cyclopropa[c]quinolin-7-yl)-1H-pyrazol-1-yl)methyl)benzamido)-3-(methylsulfonamido)propanoic acid], the EC50 is 49 nM.
The figure for `Cc1c(Cl)cccc1OCCOC(=O)N1C[C@@H]2C[C@@H]2c2c(-c3cnn(Cc4cc(C(=O)N[C@@H](CCC[N+](C)(C)C)C(=O)O)ccc4Cl)c3)cccc21` [Example 690, (S)-4-Carboxy-4-(4-chloro-3-((4-((1aR,7bS)-3-((2-(3-chloro-2-methylphenoxy)ethoxy)carbonyl)-1a,2,3,7b-tetrahydro-1H-cyclopropa[c]quinolin-7-yl)-1H-pyrazol-1-yl)methyl)benzamido)-N,N,N-trimethylbutan-1-aminium, TFA salt] is 45 nM; for `Cc1c(Cl)cccc1OCCOC(=O)N1C[C@@H]2C[C@@H]2c2c(-c3cnn(Cc4cc(C(=O)N5C[C@@H](O)C[C@H]5C(=O)O)ccc4Cl)c3)cccc21` [Example 693, (2S,4S)-1-(4-Chloro-3-((4-((1aR,7bS)-3-((2-(3-chloro-2-methylphenoxy)ethoxy)carbonyl)-1a,2,3,7b-tetrahydro-1H-cyclopropa[c]quinolin-7-yl)-1H-pyrazol-1-yl)methyl)benzoyl)-4-hydroxypyrrolidine-2-carboxylic acid] it is 188 nM; for `Cc1c(Cl)cccc1OCCOC(=O)N1C[C@@H]2C[C@@H]2c2c(-c3cnn(Cc4cc(C(=O)NC5(CC(=O)O)COC5)ccc4Cl)c3)cccc21` [Example 698, 2-(3-(4-Chloro-3-((4-((1aR,7bS)-3-((2-(3-chloro-2-methylphenoxy)ethoxy)carbonyl)-1a,2,3,7b-tetrahydro-1H-cyclopropa[c]quinolin-7-yl)-1H-pyrazol-1-yl)methyl)benzamido)oxetan-3-yl)acetic acid] it is 28 nM.
Regarding `Cc1c(Cl)cccc1OCCOC(=O)N1C[C@@H]2C[C@@H]2c2c(-c3cnn(Cc4cc(C(=O)NCC5(C(=O)O)CC5)ccc4Cl)c3)cccc21` [Example 699, 1-((4-Chloro-3-((4-((1aR,7bS)-3-((2-(3-chloro-2-methylphenoxy)ethoxy)carbonyl)-1a,2,3,7b-tetrahydro-1H-cyclopropa[c]quinolin-7-yl)-1H-pyrazol-1-yl)methyl)benzamido)methyl) cyclopropanecarboxylic acid], the EC50 stood at 41 nM.
The figure for `Cc1c(Cl)cccc1OCCCC(=O)N1CCCOc2c(-c3cnn(Cc4c(F)cc(C(=O)NCS(=O)(=O)O)cc4Cl)c3)cccc21` [Example 702, (3-Chloro-4-((4-(5-(4-(3-chloro-2-methylphenoxy)butanoyl)-2,3,4,5-tetrahydrobenzo[b][1,4]oxazepin-9-yl)-1H-pyrazol-1-yl)methyl)-5-fluorobenzamido)methanesulfonic acid] is 46 nM; for `Cc1c(Cl)cccc1OCCCC(=O)N1CCCOc2c(-c3cnn(Cc4c(F)cc(C(=O)NCCS(=O)(=O)O)cc4Cl)c3)cccc21` [Example 703, 2-(3-Chloro-4-((4-(5-(4-(3-chloro-2-methylphenoxy)butanoyl)-2,3,4,5-tetrahydrobenzo[b][1,4]oxazepin-9-yl)-1H-pyrazol-1-yl)methyl)-5-fluorobenzamido)ethanesulfonic acid] it is 46 nM.
With `Cc1c(Cl)cccc1OCCCC(=O)N1CCCOc2c(-c3cnn(Cc4ccc(C(=O)NCS(=O)(=O)O)cc4F)c3)cccc21` [Example 719, (4-((4-(5-(4-(3-Chloro-2-methylphenoxy)butanoyl)-2,3,4,5-tetrahydrobenzo[b][1,4]oxazepin-9-yl)-1H-pyrazol-1-yl)methyl)-3-fluorobenzamido)methanesulfonic acid], the EC50 is 188 nM.
Turning to `Cc1c(Cl)cccc1OCCCC(=O)N1CCCOc2c(-c3cnn(Cc4c(F)cc(C(=O)NCC[N+](C)(C)C)cc4F)c3)cccc21` [Example 724, 2-(4-((4-(5-(4-(3-Chloro-2-methylphenoxy)butanoyl)-2,3,4,5-tetrahydrobenzo[b][1,4]oxazepin-9-yl)-1H-pyrazol-1-yl)methyl)-3,5-difluorobenzamido)-N,N,N-trimethylethanaminium, TFA salt], the EC50 is 1300 nM.
For the molecule `Cc1c(Cl)cccc1OCCCC(=O)N1CCCCc2c(-c3cnn(Cc4cccc(C(=O)NCCC(=O)O)c4)c3)cccc21` [Example 730, 3-(3-((4-(1-(4-(3-Chloro-2-methylphenoxy)butanoyl)-2,3,4,5-tetrahydro-1H-benzo[b]azepin-6-yl)-1H-pyrazol-1-yl)methyl)benzamido)propanoic acid], the EC50 was 188 nM.
As to `Cc1c(Cl)cccc1OCCCC(=O)N1CCCOc2c(-c3cnn(Cc4ccc(C(=O)N[C@@H](CC(=O)O)C(=O)O)cc4)c3)cccc21` [Example 767, (S)-2-(4-((4-(5-(4-(3-Chloro-2-methylphenoxy)butanoyl)-2,3,4,5-tetrahydrobenzo[b][1,4]oxazepin-9-yl)-1H-pyrazol-1-yl)methyl)benzamido)succinic acid], the EC50 worked out at 1520 nM.
For `Cc1c(Cl)cccc1OCCCC(=O)N1Cc2ccccc2Oc2c(-c3cnn(Cc4c(F)cc(C(=O)NCCC(=O)O)cc4Cl)c3)cccc21` [Example 784, 3-(3-Chloro-4-((4-(10-(4-(3-chloro-2-methylphenoxy)butanoyl)-10,11-dihydrodibenzo[b,f][1,4]oxazepine-6-yl)-1H-pyrazol-1-yl)methyl)-5-fluorobenzamido)propanoic acid], the EC50 turned out to be 200 nM.
The value for `Cc1c(Cl)cccc1OCCCC(=O)N1CCCOc2c(-c3cnn(Cc4c(F)cc(C(=O)NCC(=O)O)cc4Cl)c3)cccc21` [Example 786, 2-(3-Chloro-4-((4-(5-(4-(3-chloro-2-methylphenoxy)butanoyl)-2,3,4,5-tetrahydrobenzo[b][1,4]oxazepin-9-yl)-1H-pyrazol-1-yl)methyl)-5-fluorobenzamido)acetic acid] was 173 nM; that for `Cc1c(Cl)cccc1OCCCC(=O)N1CCCOc2c(-c3cnn(Cc4c(F)cc(C(=O)N[C@@H](CCCCN)C(=O)O)cc4Cl)c3)cccc21` [Example 792, (S)-6-Amino-2-(3-chloro-4-((4-(5-(4-(3-chloro-2-methylphenoxy)butanoyl)-2,3,4,5-tetrahydrobenzo[b][1,4]oxazepin-9-yl)-1H-pyrazol-1-yl)methyl)-5-fluorobenzamido)hexanoic acid] was 185 nM; that for `Cc1c(Cl)cccc1OC(C)(C)COC(=O)N1CCCOc2c(-c3cnn(Cc4c(F)cc(C(=O)NCCS(=O)(=O)O)cc4Cl)c3)cccc21` [Example 807, 2-(3-Chloro-4-((4-(5-((2-(3-chloro-2-methylphenoxy)-2-methylpropoxy)carbonyl)-2,3,4,5-tetrahydrobenzo[b][1,4]oxazepin-9-yl)-1H-pyrazol-1-yl)methyl)-5-fluorobenzamido)ethanesulfonic acid] was 1330 nM.
The value for `Cc1c(Cl)cccc1OC(C)(C)COC(=O)N1CCCOc2c(-c3cnn(Cc4c(F)cc(C(=O)NCCC(=O)O)cc4Cl)c3)cccc21` [Example 808, 3-(3-Chloro-4-((4-(5-((2-(3-chloro-2-methylphenoxy)-2-methylpropoxy)carbonyl)-2,3,4,5-tetrahydrobenzo[b][1,4]oxazepin-9-yl)-1H-pyrazol-1-yl)methyl)-5-fluorobenzamido)propanoic acid] was 1340 nM; that for `Cc1c(Cl)cccc1Oc1cccc(C(=O)N2CCCOc3c(-c4cnn(Cc5c(F)cc(C(=O)NCCC(=O)O)cc5Cl)c4)cccc32)c1` [Example 815] was 2000 nM; that for `Cc1cccc(OCCCC(=O)N2CCCc3c(-c4cnn(Cc5cccc(C(=O)N(C)CCS(=O)(=O)O)c5)c4)cccc32)c1C` [Example 829, 2-(3-((4-(1-(4-(2,3-Dimethylphenoxy)butanoyl)-1,2,3,4-tetrahydroquinolin-5-yl)-1H-pyrazol-1-yl)methyl)-N-methylbenzamido)ethanesulfonic acid] was 1350 nM.
Turning to `Cc1cccc(OCCCC(=O)N2CCCc3c(-c4cnn(Cc5cccc(C(=O)N6CCCC(CO)C6)c5)c4)cccc32)c1C` (stereo not drawn) [Example 830, 4-(2,3-Dimethylphenoxy)-1-(5-(1-(3-(3-(hydroxymethyl)piperidine-1-carbonyl)benzyl)-1H-pyrazol-4-yl)-3,4-dihydroquinolin-1(2H)-yl)butan-1-one], the EC50 was found to be 176 nM.
Regarding `Cc1cccc(OCCCC(=O)N2CCCc3c(-c4cnn(Cc5cccc(C(=O)N6CCC(CO)CC6)c5)c4)cccc32)c1C` [Example 836, 4-(2,3-Dimethylphenoxy)-1-(5-(1-(3-(4-(hydroxymethyl)piperidine-1-carbonyl)benzyl)-1H-pyrazol-4-yl)-3,4-dihydroquinolin-1(2H)-yl)butan-1-one], the EC50 came out at 173 nM.
Turning to `Cc1cccc(OCCCC(=O)N2CCCc3c(-c4cnn(Cc5cccc(C(=O)N[C@@H](Cc6ccccc6)C(=O)O)c5)c4)cccc32)c1C` [Example 848, (S)-2-(3-((4-(1-(4-(2,3-Dimethylphenoxy)butanoyl)-1,2,3,4-tetrahydroquinolin-5-yl)-1H-pyrazol-1-yl)methyl)benzamido)-3-phenylpropanoic acid], the EC50 was 196 nM.
